Data set [1] is described as follows: Solubility of cyclized peptide analogs.
In data set [2] the test system is macrophages. It counts as cell-based, mouse.
The target of data set [3] is M2pep receptor on M2 macrophages (identity unknown) (mouse). The data set can be described thus: flow cytometry binding curves on murine M2 macrophages. A general note: A flow cytometer gives signals particle by particle.
Data set [4] has the same target. The data set can be described thus: flow cytometry on murine M2 macrophages, biotinylated peptide + streptavidin-FITC; apparent KD from half-maximal MFI.
Data set [5] has the same target. The data set can be described thus: flow cytometry on murine M2 macrophages; apparent KD.

Starred links: 1 amine or outer side, 2 acyl side, 3 side chain; linkers in the order of their positions; H or OH if unused. Positions of bridges follow the written chain, without caps; N, C: chain ends. Non-standard residues stand in square brackets, D forms with d. Residues, ends and D or L forms follow the SMILES beside them. No end group written: not given here. *: point of attachment. Perfluorobiphenyl(4,4') = Fc1c(F)c([*:1])c(F)c(F)c1-c1c(F)c(F)c([*:2])c(F)c1F; Biotin = O=C1N[C@H]2[C@H](CS[C@H]2CCCCC(=O)*)N1; Phe(F5) = N[C@@H](Cc1c(F)c(F)c(F)c(F)c1F)C(=O)O

As for `CC(C)[C@@H]1NC(=O)CNC(=O)[C@H](Cc2c[nH]c3ccccc23)NC(=O)[C@@H]2CCCN2C(=O)[C@H](CC(=O)O)NC(=O)[C@H](CCC(N)=O)NC(=O)[C@H](CCC(=O)O)NC(=O)[C@H](Cc2ccc(O)cc2)NC(=O)CNC(=O)[C@@H](N)CSc2c(F)c(F)c(c(F)c2F)-c2c(F)c(F)c(c(F)c2F)SC[C@@H](C(=O)N[C@H](CCCCN)C(=O)N[C@H](CCCCN)C(=O)N[C@H](CCCCN)C(=O)N[C@@H](CCCCNC(=O)CCCC[C@@H]2SC[C@@H]3NC(=O)N[C@@H]32)C(N)=O)NC(=O)CNC(=O)[C@H](Cc2ccc(O)cc2)NC(=O)[C@H](Cc2c[nH]c3ccccc23)NC(=O)[C@H](Cc2ccc(O)cc2)NC(=O)[C@H](CCCNC(=N)N)NC1=O` [DFBP-cyclized M2pep(RY)Biotin] (H-CGYEQDPWGVRYWYGC[dK][dK][dK]K(Biotin)-NH2; linker 1-16 via Perfluorobiphenyl(4,4')), the “solubility (in words)” value in data set [1] is recorded as “higher solubility than FF-cyclized M2pep(RY)Biotin”.

`CC(C)[C@@H]1NC(=O)CNC(=O)[C@H](Cc2c[nH]c3ccccc23)NC(=O)[C@@H]2CCCN2C(=O)[C@H](CC(=O)O)NC(=O)[C@H](CCC(N)=O)NC(=O)[C@H](CCC(=O)O)NC(=O)[C@H](Cc2ccc(O)cc2)NC(=O)CNC(=O)[C@H](Cc2c(F)c(F)c(F)c(F)c2F)NC(=O)[C@H](Cc2c(F)c(F)c(F)c(F)c2F)NC(=O)[C@@H](N)CSSC[C@@H](C(=O)N[C@H](CCCCN)C(=O)N[C@H](CCCCN)C(=O)N[C@H](CCCCN)C(=O)N[C@@H](CCCCNC(=O)CCCC[C@@H]2SC[C@@H]3NC(=O)N[C@@H]32)C(N)=O)NC(=O)CNC(=O)[C@H](Cc2ccc(O)cc2)NC(=O)[C@H](Cc2c[nH]c3ccccc23)NC(=O)[C@H](Cc2ccc(O)cc2)NC(=O)[C@H](CCCNC(=N)N)NC1=O` [F(F5)F(F5)-cyclized M2pep(RY)Biotin] (H-C[Phe(F5)][Phe(F5)]GYEQDPWGVRYWYGC[dK][dK][dK]K(Biotin)-NH2; disulfide 1-18): the toxicity to macrophages result in data set [2] was “very toxic to macrophages even at low micromolar concentrations”. Also, the “solubility (in words)” value in data set [1] is on record as “less soluble than the FF-cyclized analog”.

`CC(C)[C@@H]1NC(=O)CNC(=O)[C@H](Cc2c[nH]c3ccccc23)NC(=O)[C@@H]2CCCN2C(=O)[C@H](CC(=O)O)NC(=O)[C@H](CCC(N)=O)NC(=O)[C@H](CCC(=O)O)NC(=O)[C@H](Cc2ccc(O)cc2)NC(=O)CNC(=O)[C@H](Cc2ccccc2)NC(=O)[C@H](Cc2ccccc2)NC(=O)[C@@H](N)CSSC[C@@H](C(=O)N[C@H](CCCCN)C(=O)N[C@H](CCCCN)C(=O)N[C@H](CCCCN)C(=O)N[C@@H](CCCCNC(=O)CCCC[C@@H]2SC[C@@H]3NC(=O)N[C@@H]32)C(N)=O)NC(=O)CNC(=O)[C@H](Cc2ccc(O)cc2)NC(=O)[C@H](Cc2c[nH]c3ccccc23)NC(=O)[C@H](Cc2ccc(O)cc2)NC(=O)[C@H](CCCNC(=N)N)NC1=O` [FF-cyclized M2pep(RY)Biotin] (H-CFFGYEQDPWGVRYWYGC[dK][dK][dK]K(Biotin)-NH2; disulfide 1-18): in data set [1], the “solubility (in words)” value is listed as “significantly reduces solubility”.

In the case of DFBP-cyclized M2pep(RY)Biotin (peptide), in data set [3], the fold enhancement of binding activity against DFBP-cyclized M2pepBiotin was 4 fold. For the same molecule, the Kd in data set [4] stood at 2.03 µM.

For the molecule YEQDPWGVKWWYGGGSKKK(Biotin)-NH2 [M2pepBiotin], the Kd in data set [5] amounted to 220 µM.
